These are literature values, as cited in US20260200930A1, “PRODRUGS OF TEMOZOLOMIDE TO FACILITATE DELIVERY INTO BRAIN TUMORS” (H. LEE MOFFITT CANCER CENTER AND RESEARCH INSTITUTE, INC., priority 2022, published 2026).

For data set [1] the following is noted: oral chemotherapy; % of the highest plasma concentration.

As to `Cn1nnc2c(C(N)=O)ncn2c1=O` [TMZ, temozolomide], the solubility in water result is recorded as “insoluble in water”. Moreover, in data set [1], the “brain concentration relative to highest plasma concentration that can safely be obtained” value is listed as “about 40%”.
